# Reference: patent US9426996B2, “Use of benzoxaboroles as volatile antimicrobial agents on meats, plants, or plant parts” (AgroFresh Inc., priority 2013, dated 2016)
# Legend:
# Botrytis cinerea [1] = test: white roses with natural inoculum, volatile treatment; type: in vivo; set-up: key to Severity (0-4): 0 = No disease; 1 = Browning and small lesions on the sepals or petals; 2 = Browning, petals covered with fungal spores; 3 = Browning, petals covered with fungal spores, some petal drop; 4 = Browning, petals covered with fungal spores, some flowers aborted
# Experimental: A similar test like the one described above is also performed on white roses with natural inoculum. Five white roses are placed in an 800 mL jar containing 200 mL of a common commercial flower preservative.
# Three jars are then placed in a 117 L Rubbermaid storage box (Cat #2244). Two small fans are place in opposite ends of the container to assist with the volatile distribution of compound A. The tub is closed tightly, and then Compound A is diluted in acetone, and then pipetted onto a 1.5 inch×1 inch cotton strip. The acetone is allowed to evaporate for five minutes. Compound A is then introduced to the containers by a sublimation device (copper tube heated to 200° C. with fan flow at 0.5 L/min) to achieve a final headspace concentration of 0.04, 0.2, 1 mg/L, through a ½″ side port that is sealed immediately after the application. Alternatively, Compound A is pipetted onto a 42.5 mm Whatman #1 filter disk (Cat. No. 1001-042), supported by a watch glass, where the acetone is allowed to evaporate for five minutes prior to sealing the container. The flowers are incubated for three days at 21° C. After treatment, flowers are evaluated for an additional two days for disease incidence and severity of the flower petals. Applying a treatment at 1 mg/L through sublimation results in 0% incidence. Rose petals after treatment with Compound A have no disease incidence, retained white color, and the roses had no petal drop.
# Fusarium sambucinum = test: in vivo volatile assay on potato slices; details: 10 mg/L, 21° C. for 3 days
# Experimental: (§1) To test the effect of Compound A (FIG. 1) on vegetables, potato, onion and squash were obtained from a local store, and the surface sterilized with 0.825% sodium hypochlorite (NaOCl). A slice of potato or two leaves of onion were placed in a sterile Petri plate, while whole squash were placed in a sterile 10.8-cup SnapWare airtight container (Model #109842). Each slice of potato was inoculated with 20 μL of a 1×10^5 spores/mL Fusarium sambucinum suspension, while onions were inoculated with 20 μL of a 1×10^6 spores/mL Botrytis cinerea suspension. For inoculation of squash, a small core was removed, and a mycelial plug of Phytophthora capsici was inserted and capped with the core. Compound A was diluted in acetone, and added to a 42.5 mm Whatman #1 filter disk (Cat. No. 1001-042) attached to the inner side of the lid at a rate to achieve a final headspace concentration of 10 mg/L. The acetone was permitted to evaporate for 5 minutes before parafilm sealing the plates or closing the airtight containers. The vegetables were incubated at 21° C. for 3 days, and evaluated for mycelial growth, dry rot, and water-soaked appearance (mm diameter) with results summarized in Table 13.
# Phytophthora capsici = test: in vivo volatile assay on squash; details: 10 mg/L, 21° C. for 3 days
# Experimental: as §1
# Botrytis cinerea [2] = test: in vivo strawberry assay comparing fog and sublimation; details: 10 mg/L, three day treatment plus three days at 21° C.
# Experimental: To compare the ability of Compound A when actively volatilized by different mechanisms, an in vivo assay using strawberry is performed. Eight strawberries are placed in a clamshell with stem end facing downwards. […] The clamshell is placed in a 10.8-cup SnapWare airtight container (Model #109842) and closed with the lids. Compound A is dissolved in acetone and volatilized through a sealable ½ inch side port by an ES-100-H SmartFog system (Reno, Nev.). Alternatively, Compound A, dissolved in acetone, is pipetted onto a cotton strip, where the acetone is allowed to evaporate for five minutes, and then introduced into the container by a sublimation device (copper tube heated to 200° C. with fan flow at 0.5 L/min) to achieve a final headspace concentration of 10 mg/L. The fruits are stored for three days at 21° C. After the three days of treatment, fruit are stored for an additional three days at 21° C., and then evaluated for incidence (%) and severity of disease (0 to 4).
# Penicillium digitatum = test: in vitro contact fungicide assay (amended PDA); type: cell-based; details: three days at 23° C.
# Experimental: (§2) In order to assess the activity of Compound A as a contact fungicide, an in vitro assay is developed. A 6 cm-diameter Petri plate is used. Compound A is amended into full-strength Potato Dextrose Agar (PDA) to achieve a final solution concentration of 10, 2, 0.4, or 0.08 mg/L, and 15-mL volume of solution is added to each plate. After cooling, 1 μL of 1×10^5 per mL Penicillium expansum or Penicillium digitatum spore suspension is spot-pipetted into the center of the agar.
# (§3) Plates are sealed with a parafilm and placed in an incubator held at 23° C. After three days of storage, the cultures are evaluated for percent growth relative to control based on measurement of fungal colony diameter.
# Penicillium expansum = test: in vitro contact fungicide assay (amended PDA); type: cell-based; details: three days at 23° C.
# Experimental: as §2, §3
# [3] = 0.04 mg/L, Applied through sublimation
# [4] = 0.04 mg/L, Volatilized from Whatman Filter
# [5] = 0.2 mg/L, Applied through sublimation
# [6] = 0.2 mg/L, Volatilized from Whatman Filter
# [7] = 1 mg/L, Applied through sublimation
# [8] = 1 mg/L, Volatilized from Whatman Filter
smiles,measurement,setting,value
OB1OCc2cc(F)ccc21 [Compound A],Incidence (%),Botrytis cinerea [1]; [3],46.7%
same,Severity (0-4),Botrytis cinerea [1]; [3],1.7
same,Incidence (%),Botrytis cinerea [1]; [4],46.7%
same,Severity (0-4),Botrytis cinerea [1]; [4],1.1
same,Incidence (%),Botrytis cinerea [1]; [5],13.3%
same,Severity (0-4),Botrytis cinerea [1]; [5],0.5
same,Incidence (%),Botrytis cinerea [1]; [6],66.7%
same,Severity (0-4),Botrytis cinerea [1]; [6],1.8
same,Incidence (%),Botrytis cinerea [1]; [7],0%
same,Severity (0-4),Botrytis cinerea [1]; [7],0
same,Incidence (%),Botrytis cinerea [1]; [8],53.3%
same,Severity (0-4),Botrytis cinerea [1]; [8],1.6
same,Dry rot,Fusarium sambucinum,0 mm
same,Mycelial growth,Fusarium sambucinum,0 mm
same,Mycelial growth,Phytophthora capsici,1.1 mm
same,Water soaked,Phytophthora capsici,5.3 mm
same,Incidence (%),Botrytis cinerea [2]; Fog,6.3%
same,Severity (0 to 4),Botrytis cinerea [2]; Fog,0.03
same,Incidence (%),Botrytis cinerea [2]; Sublimation,0.0%
same,Severity (0 to 4),Botrytis cinerea [2]; Sublimation,0.0
same,Incidence (%) P. digitatum,Penicillium digitatum; 0.08 mg/L,42.0%
same,Incidence (%) P. digitatum,Penicillium digitatum; 0.4 mg/L,12.5%
same,Incidence (%) P. digitatum,Penicillium digitatum; 2 mg/L,0.0%
same,Incidence (%) P. digitatum,Penicillium digitatum; 10 mg/L,0.0%
same,Incidence (%) P. expansum,Penicillium expansum; 0.08 mg/L,93.1%
same,Incidence (%) P. expansum,Penicillium expansum; 0.4 mg/L,33.0%
same,Incidence (%) P. expansum,Penicillium expansum; 2 mg/L,0.0%
same,Incidence (%) P. expansum,Penicillium expansum; 10 mg/L,0.0%
